Experimental data as given in US9604973B2, “Anti-cancer polyketide compounds” (priority 2012, dated 2017).

Experiments:
Format in all cases: cell-based, human
JURKAT = experiment: Flow cytometry cell viability/% SIA in leukemia cell line; settings: 0-10,000 nM, 48 hours
Description: (§1) FIG. 22: Activity of FD-895, PLAD and F-Ara-A in different human leukemia cell lines: Different leukemia cell lines including MEC1, RAJI and JURKAT were incubated with FD-895, PLAD and F-Ara-A (0, 10, 100, 1000, 10,000 nM) for 48 hours. The samples were harvested and cell viability was measured by flow cytometry using propidium iodine (PI) exclusion and mitochondrial membrane potential changes using DiOC6. This experiments was performed 2 times independently.
(§2) The leukemia cell lines, MEC1, RAJI and JURKAT were maintained in CLL B cells were maintained in RPMI 1640 medium supplemented with 10% FBS, 2 mM L-glutamine, and 100 U/mL of penicillin and 100 μg/mL of streptomycin at 37° C. in an atmosphere of 5% CO2.
(§3) Apoptotic and viable cells were discriminated via flow cytometry of cells stained with 3,3′ dihexyloxacarbocyanine iodide (DiOC6) (Molecular Probes, Eugene, Oreg., USA) and propidium iodine (Sigma, St Louis, Mo., USA), as described.^3 Using this method viable cells exclude PI and stain brightly positive for DiOC6.
(§4) We further examined the activity of FD-895, PLAD and F-Ara-A in different leukemia cell lines like MEC1 (B chronic lymphocytic leukemia cell line), RAJI (B lymphocyte cell line), JURKAT (T lymphocyte cell line) as to know whether these compounds induce apoptosis or not. We incubated cells with FD-895, PLAD and F-Ara-A with 0, 10, 100, 1000 or 10,000 nM for 48 hours and measured the % SIA by using flow cytometry.

MEC1 = experiment: as above; settings: MEC1, 0-10,000 nM, 48 hours
Description: as §1, §2, §3, §4

RAJI = experiment: as above; settings: 0-10,000 nM, 48 hours
Description: as §1, §2, §3, §4

DNAJB1 [1] = experiment: RT-PCR of spliced and unspliced mRNA (intron retention) in CLL cells; settings: 4 hours, FD-895, PLAD 10, 100 nM, bendamustine 33, 100 μM, F-Ara-A 3, 10, 33 μM
Description: (§5) FIG. 23: FD-895 and PLAD induced inhibition of splicing in CLL: RT-PCR for analysis of spliced and unspliced mRNAs. CLL cells treated with FD-895, PLAD (10, 100 nM), chemotherapeutic agent like bendamustine (33, 100 μM) and F-Ara-A (3, 10, 33 μM) for 4 hours. RT-PCR for DNAJB1 was performed with primers spanning two exons; products were analyzed on ethidium bromide-stained agarose gels (2%) to visualize the correct size of the unspliced mRNAs. […] The exon structure of DNAJB1 gene is indicated. G, human genomic DNA was used as a control; U, unspliced mRNA; S, spliced mRNA.
(§6) CLL cells were treated with 10 and 100 nM of FD-895 and PLAD, 33 and 100 μM of bendamustine and 3, 10, and 33 μM of F-Ara-A for 4 h. Normal B and CLL cells were treated with 100 nM of FD-895 and PLAD and 10 μM of F-Ara-A for 15 minutes, 30 minutes, 1, 2 and 4 h. Total RNA was extracted using mirVana™ miRNA isolation kit (Ambion Life Technology, USA). After DNase treatment, 200 ng total RNA was reverse-transcribed using a SuperScript™ III first-strand synthesis system (Invitrogen). PCR was performed on 10 ng of the obtained cDNA (or human genomic DNA as a control) in 25 μl of reaction mixture containing Plantinum® PCR SuperMix High-fidelity (Invitrogen Life Technology, USA), and 0.1 μM of each primer of the appropriate pair.
(§7) PCR conditions were 94° C. for 3 min; 35 cycles of 94° C. for 30 s, 60° C. for 30 s, and 72° C. for 1 min; followed by 72° C. for 5 min. PCR products were separated on a 2% agarose gel and stained with ethidium bromide.

GAPDH = experiment: RT-PCR of spliced and unspliced mRNA (intron retention) in CLL cells, housekeeping gene; settings: for intron retention/splicing inhibition of GAPDH: 100 nM, 15 min to 4 hours; for splicing inhibition of housekeeping gene GAPDH: 4 hours, same concentrations
Description: as §5, §6, §7

DNAJB1 [2] = experiment: Quantitative RT-PCR of unspliced mRNA in CLL cells; settings: for unspliced mRNA of DNAJB1 over time: CLL cells, FD-895, PLAD 100 nM, F-Ara-A 10 μM, 15 min, 1 and 4 hours; for unspliced mRNA of DNAJB1: CLL, 10 nM, 4 hours
Description: FIG. 24: Time-dependent increase of unspliced mRNA by FD-895 and PLAD in CLL: CLL cells were treated with 100 nM of FD-895 and PLAD and 10 μM of F-Ara-A for 15 min, 1 and 4 hours. Quantitative RT-PCR using primers specific for each intron quantified unspliced mRNA for DNAJB1. GAPDH was used for normalization. […] Error bars indicate S.D.
(§8) Quantitative RT-PCR using primers specific for each intron quantified unspliced mRNA for DNAJB1 (FIG. 25A) and RIOK3 (FIG. 25B). GAPDH was used for normalization. […] Error bars indicate S.D.
(§9) CLL cells were treated with 100 nM of FD-895 and PLAD and 10 μM of F-Ara-A for 15 minutes, 1 and 4 h. Normal B and CLL cells were treated with 10, 100, and 1000 nM of FD-895 and PLAD and 10 μM of F-Ara-A for 4 h.
(§10) Extraction of total RNA and cDNA synthesis were performed as described earlier. Unspliced mRNA was quantified using a 7900HT fast Real Time PCR System (Applied Biosystems). The amounts of unspliced mRNA of DNAJB1, and RIOK3 were determined by SYBR green (Power SYBR Green PCR Master Mix, Applied Biosystems) real-time quantitative RT-PCR using specific primers designed for the intron of each gene (see additional information section at the end).
(§11) PCR using 0.2 μM of each primer was performed on 20 ng of the obtained cDNA. PCR conditions were 50° C. for 2 min; 95° C. for 10 min; 35 cycles of 94° C. for 20 s, 55° C. for 20 s, followed by 72° C. for 30 s. The mRNA levels were calculated using 2^−ΔΔCT method.^4 GAPDH was used as a control for normalization.

RIOK3 = experiment: Quantitative RT-PCR of unspliced mRNA in CLL cells; settings: 10 nM, 4 hours
Description: as §8, §9, §10, §11

Molecule: Pladienolide B
- cell death (% SIA) (JURKAT): high significant cell death
- cell death (% SIA) (MEC1): did not show significant apoptosis
- cell death (% SIA) (RAJI): high significant cell death
- intron retention/splicing inhibition of DNAJB1 (DNAJB1 [1]): showed intron retention at low concentration
- intron retention/splicing inhibition of GAPDH (GAPDH): no intron retention/splicing inhibition
- splicing inhibition of housekeeping gene GAPDH (GAPDH): Neither FD-895, PLAD nor chemotherapy agents showed splicing inhibition
- unspliced mRNA of DNAJB1 over time (DNAJB1 [2]): gradual increase in unspliced mRNA
- unspliced mRNA of DNAJB1 (DNAJB1 [2]): clear increase in unspliced mRNA
- unspliced mRNA of RIOK3 (RIOK3): clear increase in unspliced mRNA

Molecule: CCC(OC)C(C)C1OC1C(O)C(C)/C=C/C=C(\C)C1OC(=O)CC(O)CCC(C)(O)C(OC(C)=O)/C=C/C1C (stereo not drawn) [FD-895]
- cell death (% SIA) (JURKAT): high significant cell death
- cell death (% SIA) (MEC1): did not show significant apoptosis
- cell death (% SIA) (RAJI): high significant cell death
- intron retention/splicing inhibition of DNAJB1 (DNAJB1 [1]): showed intron retention at low concentration
- intron retention/splicing inhibition of GAPDH (GAPDH): no intron retention/splicing inhibition
- splicing inhibition of housekeeping gene GAPDH (GAPDH): Neither FD-895, PLAD nor chemotherapy agents showed splicing inhibition
- unspliced mRNA of DNAJB1 over time (DNAJB1 [2]): gradual increase in unspliced mRNA
- unspliced mRNA of DNAJB1 (DNAJB1 [2]): clear increase in unspliced mRNA
- unspliced mRNA of RIOK3 (RIOK3): clear increase in unspliced mRNA
